Measured values published in US20230146795A1, “ENHANCEMENT OF ANTI-TUMOR ACTIVITY OF SHP2 INHIBITOR PYRIMIDINONE IN COMBINATION WITH NOVEL CANCER MEDICINES IN CANCERS” (TAIHO PHARMACEUTICAL CO., LTD., priority 2020, published 2023).
Where “and” joins values, the source holds several entries; their conditions need not be identical. Identical values can stand only once. Like-named read-outs stand apart in the source and are kept apart here.

Experiments:
NCI-H358 = test: Anti-proliferation assay (CellTiter-Glo 2.0), combination index, NCI-H358; assay type: cell-based
Procedure: (§1) Cell lines were obtained from ATCC or Health Science Research Resources Bank.
(§2) Each cell lines were collected by ordinary method, then suspended in indicated medium containing 10% fetal bovine serum in table 3. The number of cells seeded per well was set to 500 cells/20 μL. […] The concentration of each anti-cancer reagents set to 8 concentrations including 0 nM. After adding the medicine to the cells, the cells were further incubated at 37° C. for 3 days under 5% CO2. Cell survival rates were calculated by adding 20 μL of CellTiter-Glo(registered trademark) 2. 0 (Promega) solution to each well, incubating the cells at room temperature for 10 minutes, and then measuring the chemiluminescence intensity of each well using a plate reader (ARVO).
(§3) A combination index (CI) value at each combined concentration of the medicines was determined.

RT4 = test: Anti-proliferation assay (CellTiter-Glo 2.0), combination index, RT4; assay type: cell-based
Procedure: as §1, §2, §3

[1] = Compound 1 13.7 + combination drug 12.3 nmol/L (1:0.9)
[2] = Compound 1 41.2 + combination drug 37.0 nmol/L (1:0.9)
[3] = Compound 1 123 + combination drug 111 nmol/L (1:0.9)
[4] = Compound 1 370 + combination drug 333 nmol/L (1:0.9)
[5] = Compound 1 1110 + combination drug 1000 nmol/L (1:0.9)
[6] = Compound 1 1.52 + combination drug 1.37 nmol/L (1:0.9)
[7] = Compound 1 4.57 + combination drug 4.12 nmol/L (1:0.9)
[8] = Compound 1 41.2 + combination drug 3330 nmol/L (1:81)
[9] = Compound 1 123 + combination drug 10000 nmol/L (1:81)
[10] = Compound 1 13.7 + combination drug 1.37 nmol/L (1:0.1)
[11] = Compound 1 41.2 + combination drug 4.12 nmol/L (1:0.1)
[12] = Compound 1 123 + combination drug 12.3 nmol/L (1:0.1)
[13] = Compound 1 4.57 nmol/L + Etoposide 123 nmol/L, molar ratio 1:27
[14] = Compound 1 13.7 nmol/L + Etoposide 370 nmol/L, molar ratio 1:27
[15] = Compound 1 41.2 nmol/L + Etoposide 1110 nmol/L, molar ratio 1:27
[16] = Compound 1 13.7 + combination drug 111 nmol/L (1:8.1)
[17] = Compound 1 41.2 + combination drug 333 nmol/L (1:8.1)
[18] = Compound 1 123 + combination drug 1000 nmol/L (1:8.1)
[19] = Compound 1:combination drug molar ratio 1:8.1
[20] = Compound 1 4.57 + combination drug 37.0 nmol/L (1:8.1)
[21] = Compound 1 13.7 + combination drug 123 nmol/L (1:9)
[22] = Compound 1 41.2 + combination drug 370 nmol/L (1:9)
[23] = Compound 1 123 + combination drug 1110 nmol/L (1:9)
[24] = Compound 1 370 + combination drug 3330 nmol/L (1:9)
[25] = Compound 1 1110 + combination drug 10000 nmol/L (1:9)

Cc1nc(Nc2ncc(C(=O)Nc3c(C)cccc3Cl)s2)cc(N2CCN(CCO)CC2)n1 [Dasatinib]
CI (NCI-H358; [1]): 0.342
Fa (NCI-H358; [1]): 0.2486
CI (NCI-H358; [2]): 0.208
Fa (NCI-H358; [2]): 0.4351
CI (NCI-H358; [3]): 0.119
Fa (NCI-H358; [3]): 0.7042
CI (NCI-H358; [4]): 0.227
Fa (NCI-H358; [4]): 0.7700
CI (NCI-H358; [5]): 0.633
Fa (NCI-H358; [5]): 0.7795
CI (RT4; [6]): 0.804
Fa (RT4; [6]): 0.1983
CI (RT4; [7]): 0.356
Fa (RT4; [7]): 0.3708
CI (RT4; [1]): 0.147
Fa (RT4; [1]): 0.5917
CI (RT4; [2]): 0.207
Fa (RT4; [2]): 0.6714
CI (RT4; [3]): 0.096
Fa (RT4; [3]): 0.8271
CI (RT4; [4]): 0.192
Fa (RT4; [4]): 0.8517
CI (RT4; [5]): 0.229
Fa (RT4; [5]): 0.8974

COc1cc(OC)cc(N(CCNC(C)C)c2ccc3ncc(-c4cnn(C)c4)nc3c2)c1 [Erdafitinib]
CI (NCI-H358; [8]): 0.768
Fa (NCI-H358; [8]): 0.3851
CI (NCI-H358; [9]): 0.681
Fa (NCI-H358; [9]): 0.7532
Description (combinatory effect by CI) (NCI-H358; Compound 1:combination drug molar ratio 1:81): Synergy (0.3-0.7)
CI (RT4; [10]): 0.602
Fa (RT4; [10]): 0.3659
CI (RT4; [11]): 0.124
Fa (RT4; [11]): 0.6028
CI (RT4; [12]): 0.129
Fa (RT4; [12]): 0.6985

COc1cc([C@@H]2c3cc4c(cc3[C@@H](O[C@@H]3O[C@@H]5CO[C@@H](C)O[C@H]5[C@H](O)[C@H]3O)[C@H]3COC(=O)[C@H]23)OCO4)cc(OC)c1O [Etoposide]
CI (RT4; [13]): 0.460
Fa (RT4; [13]): 0.0637
CI (RT4; [14]): 0.373
Fa (RT4; [14]): 0.2820
CI (RT4; [15]): 0.432
Fa (RT4; [15]): 0.5945
Description (RT4; combination effect, Compound 1 + Etoposide, molar ratio 1:27): Synergy (0.3-0.7)

COc1cc2ncnc(Nc3ccc(F)c(Cl)c3)c2cc1OCCCN1CCOCC1 [Gefitinib]
CI (NCI-H358; [16]): 0.311
CI (NCI-H358; [17]): 0.370
CI (NCI-H358; [18]): 0.724
Description (combinatory effect by CI) (NCI-H358; [19]): Synergy (0.3-0.7)
CI (RT4; [16]): 0.205
CI (RT4; [17]): 0.352
CI (RT4; [18]): 0.445

C=CC(=O)Nc1cc(Nc2nccc(-c3cn(C)c4ccccc34)n2)c(OC)cc1N(C)CCN(C)C [Osimertinib]
CI (NCI-H358; [16]): 0.333
Fa (NCI-H358; [16]): 0.2157
CI (NCI-H358; [17]): 0.436
Fa (NCI-H358; [17]): 0.4242
CI (NCI-H358; [18]): 0.844
Fa (NCI-H358; [18]): 0.5579
Description (combinatory effect by CI) (NCI-H358; [19]): Synergy (0.3-0.7)
CI (RT4; [20]): 0.844
Fa (RT4; [20]): 0.2395
CI (RT4; [16]): 0.453
Fa (RT4; [16]): 0.4891
CI (RT4; [17]): 0.326
Fa (RT4; [17]): 0.7067
CI (RT4; [18]): 0.550
Fa (RT4; [18]): 0.7777
Description (combinatory effect by CI) (RT4; [19]): Synergy (0.3-0.7)

Cc1ccc(C(=O)Nc2ccc(CN3CCN(C)CC3)c(C(F)(F)F)c2)cc1C#Cc1cnc2cccnn12 [Ponatinib]
CI (NCI-H358): 0.794 and 0.463 and 0.639

CNC(=O)c1cc(Oc2ccc(NC(=O)Nc3ccc(Cl)c(C(F)(F)F)c3)c(F)c2)ccn1 [Regorafenib]
CI (RT4; [21]): 0.650
Fa (RT4; [21]): 0.1849
CI (RT4; [22]): 0.582
Fa (RT4; [22]): 0.3071
CI (RT4; [23]): 0.359
Fa (RT4; [23]): 0.5417
CI (RT4; [24]): 0.696
Fa (RT4; [24]): 0.6157
CI (RT4; [25]): 0.979
Fa (RT4; [25]): 0.7401
Description (combinatory effect by CI) (RT4; Compound 1:combination drug molar ratio 1:9): Synergy (0.3-0.7)
